This passage reports IC50 results from US8609666B2, “2-morpholino-pyrido[3,2-D]pyrimidines” (Merck Serono SA, priority 2009, dated 2013).

The experiment concerns Human recombinant GST-PI3K. Kind of experiment: PI3K induced-lipid phosphorylation scintillation proximity assay (neomycin-coated SPA beads). Format: biochemical. The note with it: amount necessary to achieve 50% inhibition of PI3K; 120 min at room temperature. The source says:
The efficacy of compounds of the invention in inhibiting the PI3K induced-lipid phosphorylation may be tested in the following binding assay. The assay combines the scintillation proximity assay technology (SPA, Amersham) with the capacity of neomycin (a polycationic antibiotic) to bind phospholipids with high affinity and specificity. The Scintillation Proximity Assay is based on the properties of weakly emitting isotopes (such as ^3H, ^125I, ^33P). Coating SPA beads with neomycin allows the detection of phosphorylated lipid substrates after incubation with recombinant PI3K and radioactive ATP in the same well, by capturing the radioactive phospholipids to the SPA beads through their specific binding to neomycin. To a 96 wells MTP containing 10 μl of the test compound of Formula (I) (solubilized in 10% DMSO; to yield a concentration of 100, 25, 5.0, 1.25, 0.312, 0.078, 0.0195, 0.00488, 0.00122 and 0.0003 μM of the test compound), the following assay components are added: 1) 10 μL of lipid micelles 2) […] of Kinase buffer ([^33P]γATP162 μM/300 nCi, MgCl2 2.5 mM, DTT 2.5 mM, Na3VO4 25 μM in Hepes 40 mM, pH 7.4) and 3) 10 μL (100 ng) of Human recombinant GST-PI3K (in Hepes 40 mM, pH 7.4, ethylenglycol 4%). After incubation at room temperature for 120 minutes, with gentle agitation, the reaction is stopped by addition of 200 μL of a solution containing 250 μg of neomycin-coated PVT SPA beads, ATP 60 mM and EDTA 6.2 mM in PBS. The assay is further incubated at room temperature for 60 minutes with gentle agitation to allow binding of phospholipids to neomycin-SPA beads. After precipitation of the neomycin-coated PVT SPA beads for 5 minutes at 1500×g, radioactive PtdIns(3)P is quantified by scintillation counting in a Wallac MicroBeta™ plate counter. The values indicated in Table I below refer to the IC50 (μM) with respect to PI3K, i.e. the amount necessary to achieve 50% inhibition of said target. Said values show a considerable inhibitory potency of pyridopyrimidine compounds with regard to PI3K.

One may read the IC50 as the concentration at which inhibition is half-maximal. On to `CN(CCO)c1cc(C(=O)O)nc2c(-c3cccc(CO)c3)nc(N3CCOCC3)nc12` [Example 24, 8-[(2-Hydroxy-ethyl)-methyl-amino]-4-(3-hydroxymethyl-phenyl)-2-morpholin-4-yl-pyrido[3,2-d]pyrimidine-6-carboxylic acid], for which the IC50 is 74 nM.
`COCCN(C)c1cc(C(=O)O)nc2c(-c3ccc(CO)cc3)nc(N3CCOCC3)nc12` [Example 22, 4-(4-Hydroxymethyl-phenyl)-8-[(2-methoxy-ethyl)-methyl-amino]-2-morpholin-4-yl-pyrido[3,2-d]pyrimidine-6-carboxylic acid]: the IC50 was found to be 546 nM.
`CN(C)CCN(C)c1cc(C(=O)O)nc2c(-c3cccc4[nH]ccc34)nc(N3CCOCC3)nc12` [Example 57, 8-[[2-(Dimethylamino)ethyl](methyl)amino]-4-(1H-indol-4-yl)-2-morpholin-4-ylpyrido[3,2-d]pyrimidine-6-carboxylic acid]: the IC50 was found to be 137 nM.
Next, `COCCN(C)c1cc(C(=O)O)nc2c(-c3cccc(O)c3)nc(N3CCOCC3)nc12` [Example 10, 4-(3-Hydroxy-phenyl)-8-[(2-methoxy-ethyl)-methyl-amino]-2-morpholin-4-yl-pyrido[3,2-d]pyrimidine-6-carboxylic acid]: 28 nM; `CN(C)c1cc(C(=O)O)nc2c(-c3ccccc3O)nc(N3CCOCC3)nc12` [Example 42, 8-(Dimethylamino)-4-(2-hydroxyphenyl)-2-morpholin-4-ylpyrido[3,2-d]pyrimidine-6-carboxylic acid]: 23 nM.
Next, `Cc1cc(C(=O)O)nc2c(-c3cccc(O)c3)nc(N3CCOCC3)nc12` [Example 62, 4-(3-Hydroxyphenyl)-8-methyl-2-morpholin-4-ylpyrido[3,2-d]pyrimidine-6-carboxylic acid]: 225 nM; `CS(=O)(=O)N1CCN(c2cc(C(=O)O)nc3c(-c4cccc(O)c4)nc(N4CCOCC4)nc23)CC1` [Example 61, 4-(3-Hydroxyphenyl)-8-[4-(methylsulfonyl)piperazin-1-yl]-2-morpholin-4-ylpyrido[3,2-d]pyrimidine-6-carboxylic acid]: 15 nM; `CN(C)c1cc(C(=O)O)nc2c(-c3cc(F)ccc3O)nc(N3CCOCC3)nc12` [Example 29, 8-(Dimethylamino)-4-(5-fluoro-2-hydroxyphenyl)-2-morpholin-4-ylpyrido[3,2-d]pyrimidine-6-carboxylic acid]: 66 nM.
The result for `COCCOc1cc(C(=O)O)nc2c(-c3cc(O)cc(F)c3)nc(N3CCOCC3)nc12` [Example 15, 4-(3-Fluoro-5-hydroxy-phenyl)-8-(2-methoxy-ethoxy)-2-morpholin-4-yl-pyrido[3,2-d]pyrimidine-6-carboxylic acid] reads 93 nM.
As to `CN(C)c1cc(C(=O)O)nc2c(-c3cccc(C#N)c3)nc(N3CCOCC3)nc12` [Example 66, 4-(3-Cyanophenyl)-8-(dimethylamino)-2-morpholin-4-ylpyrido[3,2-d]pyrimidine-6-carboxylic acid], the IC50 turned out to be 1100 nM.
As for `CC(=O)N1CCN(c2cc(C(=O)O)nc3c(-c4cccc(O)c4)nc(N4CCOCC4)nc23)CC1` [Example 60, 8-(4-Acetylpiperazin-1-yl)-4-(3-hydroxyphenyl)-2-morpholin-4-ylpyrido[3,2-d]pyrimidine-6-carboxylic acid], the IC50 stood at 80 nM.
The result for `COCCNc1cc(C(=O)O)nc2c(-c3cccc(F)c3O)nc(N3CCOCC3)nc12` [Example 36, 4-(3-Fluoro-2-hydroxyphenyl)-8-[(2-methoxyethyl)amino]-2-morpholin-4-ylpyrido[3,2-d]pyrimidine-6-carboxylic acid] reads 18 nM; that for `COCCN(C)c1cc(C(=O)O)nc2c(-c3cccc(CO)c3)nc(N3CCOCC3)nc12` [Example 47, 4-[3-(Hydroxymethyl)phenyl]-8-[(2-methoxyethyl)(methyl)amino]-2-morpholin-4-ylpyrido[3,2-d]pyrimidine-6-carboxylic acid], 8 nM.
Next, `COCCN(C)c1cc(C(=O)O)nc2c(-c3cccc(F)c3O)nc(N3CCOCC3)nc12` [Example 33, 4-(3-Fluoro-2-hydroxyphenyl)-8-[(2-methoxyethyl)(methyl)amino]-2-morpholin-4-ylpyrido[3,2-d]pyrimidine-6-carboxylic acid]: 9 nM.
For `COc1cccc(-c2nc(N3CCOCC3)nc3c(Cl)cc(C(=O)O)nc23)c1` [Example 1, 8-Chloro-4-(3-methoxyphenyl)-2-morpholin-4-ylpyrido[3,2-d]pyrimidine-6-carboxylic acid], the concentration for half-maximal inhibition (IC50) turned out to be 1080 nM.
On to `O=C(O)c1cc(Cl)c2nc(N3CCOCC3)nc(-c3ccccc3)c2n1` [Example 64, 8-Chloro-2-morpholin-4-yl-4-phenylpyrido[3,2-d]pyrimidine-6-carboxylic acid], for which the IC50 worked out at 678 nM.
The result for `O=C(O)c1cc(NCCO)c2nc(N3CCOCC3)nc(-c3ccccc3O)c2n1` [Example 44, 8-[(2-Hydroxyethyl)amino]-4-(2-hydroxyphenyl)-2-morpholin-4-ylpyrido[3,2-d]pyrimidine-6-carboxylic acid] reads 82 nM.
The result for `COCCN(C)c1cc(C(=O)O)nc2c(-c3cc(O)cc(F)c3)nc(N3CCOCC3)nc12` [Example 14, 4-(3-Fluoro-5-hydroxy-phenyl)-8-[(2-methoxy-ethyl)-methyl-amino]-2-morpholin-4-yl-pyrido[3,2-d]pyrimidine-6-carboxylic acid] reads 19 nM; that for `CN(CCO)c1cc(C(=O)O)nc2c(-c3ccc(F)c(CO)c3)nc(N3CCOCC3)nc12` [Example 50, 4-[4-Fluoro-3-(hydroxymethyl)phenyl]-8-[(2-hydroxyethyl)(methyl)amino]-2-morpholin-4-ylpyrido[3,2-d]pyrimidine-6-carboxylic acid], 303 nM.
Consider `COCc1cccc(-c2nc(N3CCOCC3)nc3c(N(C)CCO)cc(C(=O)O)nc23)c1` [Example 27, 8-[(2-Hydroxy-ethyl)-methyl-amino]-4-(3-methoxymethyl-phenyl)-2-morpholin-4-yl-pyrido[3,2-d]pyrimidine-6-carboxylic acid], for which the IC50 came to 1850 nM.
The result for `CN(C)CCN(C)c1cc(C(=O)O)nc2c(-c3cc(F)ccc3O)nc(N3CCOCC3)nc12` [Example 32, 8-[[2-(Dimethylamino)ethyl](methyl)amino]-4-(5-fluoro-2-hydroxyphenyl)-2-morpholin-4-ylpyrido[3,2-d]pyrimidine-6-carboxylic acid] reads 564 nM; that for `CS(=O)(=O)c1cc(C(=O)O)nc2c(-c3cc(O)cc(F)c3)nc(N3CCOCC3)nc12` [Example 56, 4-(3-Fluoro-5-hydroxyphenyl)-8-(methylsulfonyl)-2-morpholin-4-ylpyrido[3,2-d]pyrimidine-6-carboxylic acid], 15 nM; that for `CNc1cc(C(=O)O)nc2c(-c3cccc(O)c3)nc(N3CCOCC3)nc12` [Example 40, 4-(3-Hydroxyphenyl)-8-(methylamino)-2-morpholin-4-ylpyrido[3,2-d]pyrimidine-6-carboxylic acid], 144 nM.
The result for `COCCNc1cc(C(=O)O)nc2c(-c3cccc(COC)c3)nc(N3CCOCC3)nc12` [Example 26, 8-(2-Methoxy-ethylamino)-4-(3-methoxymethyl-phenyl)-2-morpholin-4-yl-pyrido[3,2-d]pyrimidine-6-carboxylic acid] reads 1830 nM; that for `COCCNc1cc(C(=O)O)nc2c(-c3ccc(CO)cc3)nc(N3CCOCC3)nc12` [Example 46, 4-[4-(Hydroxymethyl)phenyl]-8-[(2-methoxyethyl)amino]-2-morpholin-4-ylpyrido[3,2-d]pyrimidine-6-carboxylic acid], 346 nM; that for `COCCNc1cc(C(=O)O)nc2c(-c3cc(F)ccc3O)nc(N3CCOCC3)nc12` [Example 31, 4-(5-Fluoro-2-hydroxyphenyl)-8-[(2-methoxyethyl)amino]-2-morpholin-4-ylpyrido[3,2-d]pyrimidine-6-carboxylic acid], 73 nM.
The result for `O=C(O)c1ccc2nc(N3CCOCC3)nc(-c3ccc(O)cc3)c2n1` [Example 8, 4-(4-Hydroxy-phenyl)-2-morpholin-4-yl-pyrido[3,2-d]pyrimidine-6-carboxylic acid] reads 855 nM.
For `COCCN(C)c1cc(C(=O)O)nc2c(-c3ccc4[nH]ccc4c3)nc(N3CCOCC3)nc12` [Example 21, 4-(1H-Indol-5-yl)-8-[(2-methoxy-ethyl)-methyl-amino]-2-morpholin-4-yl-pyrido[3,2-d]pyrimidine-6-carboxylic acid], the 50% inhibitory concentration (IC50) was determined as 169 nM.
Next, `O=C(O)c1cc(NCCO)c2nc(N3CCOCC3)nc(-c3ccc(O)cc3)c2n1` [Example 7, 8-(2-Hydroxy-ethylamino)-4-(4-hydroxy-phenyl)-2-morpholin-4-yl-pyrido[3,2-d]pyrimidine-6-carboxylic acid]: 732 nM.
